Experimental data taken from patent US12545643B2, “3,5-diaminobenzoic acid compound, and Pin1 inhibitor and therapeutic agent for inflammatory diseases using same” (Amenis Bioscience, Inc., priority 2020, dated 2026).

Legend:
Pin1 [1] = target: T1, Pin1 (Homo sapiens, UniProt Q13526); experiment: Cell-based assay of Pin1 inhibition (AMPK phosphorylation level as index, Western blot); design: endogenous in cells; host or cells: 293T cells; key: +++: a higher level of AMPK phosphorylation is promoted, as compared with C1; ++: a similar level of AMPK phosphorylation is promoted, as compared with C1; +: a lower level of AMPK phosphorylation is promoted, as compared with C1; −: no or almost no promotion is found in AMPK phosphorylation; settings: 293T cells, compound at 50 μM, 10 mM 2-DG, pAMPK level compared with known Pin1 inhibitor C1
Experimental: To evaluate the inhibitory activity of each compound synthesized in Example 1 against the function of Pin1, a cell-based assay was performed according to the method previously developed by the inventors (Yusuke Nakatsu et al., Journal of Biological Chemistry, 2015, Vol. 290, No. 40, pp. 24255-24266), in which the phosphorylation level of AMPK (AMP-activated protein kinase), a protein whose phosphorylation is suppressed by Pin1, was examined as an index.
Briefly, 293T cells were plated on a collagen-coated 24-well plate. Forty-eight hours later, each compound synthesized in the preceding example (at 50 μM) was added to the plate, and the plate was left to stand in an incubator for 30 minutes. Subsequently, 10 mM 2-DG was added to the plate, and one hour later, each sample was collected with a buffer containing mercaptoethanol and SDS.
SDS-PAGE and blotting were performed, and blocking was then performed with 3% BSA for 1 hour, according to conventional protocols. Subsequently, a pAMPK antibody (Cell Signaling; diluted 1:2000 in Can Get Signal Solution 1, Toyobo) as a primary antibody, and an HRP-linked anti rabbit IgG (GE Healthcare; diluted 1:4000 in Can Get Signal Solution 2, Toyobo) as a secondary antibody were allowed to react at ambient temperature for 1 hour prior to detection.
The inhibitory activity against the function of Pin1 was evaluated as indicated below by comparing the inhibition levels between each compound and a known Pin1 inhibitor, C1 ((R)-2-(5-(4-methoxyphenyl)-2-methylfuran-3-carboxamido)-3-(naphthalene-6-yl) propanoic acid):
(+++): a higher level of AMPK phosphorylation is promoted, as compared with C1;
(++): a similar level of AMPK phosphorylation is promoted, as compared with C1;
(+): a lower level of AMPK phosphorylation is promoted, as compared with C1;
(−): no or almost no promotion is found in AMPK phosphorylation.

Pin1 [2] = target: T1, Pin1; experiment: Cell-free assay of peptidylprolyl isomerase activity (absorbance at 330 nm, substrate Suc-Ala-Glu-Pro-Phe-pNA); type: biochemical; settings: compound 10 μM, Pin1 5 nM, substrate peptide 60 μM, 10° C.; read-out: Pin1 inhibition activity Cell-free assay (inhibition ratio)
Experimental: For some compounds synthesized in Example 1, the inhibitory activity against the function of Pin1 was measured by a cell-free assay based on the method by Janowski et al. (AnalyticalBiochemistry, 1997, Vol. 252, Issue 2, pp. 299-307) because there is an assay measuring peptidylprolylisomerase activity without cells (cell-free).
Briefly, an assay buffer (containing 35 mM HEPES, pH 7.8, 50 μM DTT and 0.0025% NP40) was equilibrated to 10° C. in a quartz cell with stirring function. To this solution was added the compound dissolved in DMSO (10 μM) and then UV spectrum of the resulting solution was immediately measured. Then Pin1 (final concentration of 5 nM) was added to the solution. The reaction was initiated by adding a substrate peptide (Suc-Ala-Glu-Pro-Phe-pNA) dissolved in 0.5 M LiCl solution in trifluoroethanol (final concentration of 60 μM). After reaction was initiated, the change of absorbance at 330 nm was measured for 5 minutes. The resultant reaction curve was fitted to a first order decay model to calculate the reaction rate. The catalytic reaction rate was calculated by subtracting the background rate from the reaction rate. The inhibition ratio (%) was calculated from the catalytic reaction rates in the presence and absence of the compound. The higher inhibition ratio means the higher inhibitory activity against Pin1 function.

T1 sequence (Q13526 whole entry): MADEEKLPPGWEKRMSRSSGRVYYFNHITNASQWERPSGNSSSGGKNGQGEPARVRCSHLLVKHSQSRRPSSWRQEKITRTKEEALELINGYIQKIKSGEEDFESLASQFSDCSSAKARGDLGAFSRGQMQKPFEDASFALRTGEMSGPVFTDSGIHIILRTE

| SMILES | Pin1 inhibition activity Cell-based assay (Pin1 [1]) | inhibition at 10 µM (Pin1 [2]) |
| --- | --- | --- |
| COC(=O)c1cc(NC(=O)c2cnccn2)cc(NC(=O)n2c3ccccc3c3ccccc32)c1 [Compound H-699] | ++ (Hydrolysis causes conversion to H-700) |  |
| O=C(O)c1cc(NC(=O)c2ccc3ccccc3c2)cc(NC(=O)N(c2ccccc2)c2ccccc2)c1 [Compound H-732] | + |  |
| O=C(O)c1cc(NC(=O)c2cnc3ccccc3n2)cc(NC(=O)N(c2ccccc2)c2ccccc2)c1 [Compound H-735] | + |  |
| O=C(O)c1cc(NC(=O)c2ccc3c(c2)OCCO3)cc(NC(=O)N(c2ccccc2)c2ccccc2)c1 [Compound H-734] | − | 82% |
| COC(=O)c1cc(NC(=O)c2ccc3c(c2)OCO3)cc(NC(=O)n2c3ccccc3c3ccccc32)c1 [Compound H-690] | − (Hydrolysis causes conversion to H-695) |  |
| O=C(CNC(=O)OCc1ccccc1)Nc1cc(NC(=O)n2c3ccccc3c3ccccc32)cc(C(=O)O)c1 [Compound H-769] | − | 15.9% |
| O=C(Cn1c2ccccc2c2ccccc21)Nc1cc(NC(=O)c2ccc3ccccc3n2)cc(C(=O)O)c1 [Compound H-747] | ++ |  |
| O=C(O)c1cc(NC(=O)c2cccnc2)cc(NC(=O)n2c3ccccc3c3ccccc32)c1 [Compound H-682] | + |  |
| O=C(COc1ccc2ccccc2n1)Nc1cc(NC(=O)n2c3ccccc3c3ccccc32)cc(C(=O)O)c1 [Compound H-765] | − | 42.8% |
| COC(=O)c1cc(NC(=O)COc2ccc3ccccc3n2)cc(NC(=O)n2c3ccccc3c3ccccc32)c1 [Compound H-764] | − (Hydrolysis causes conversion to H-765) |  |
| O=C(COc1ccc2ccccc2c1)Nc1cc(NC(=O)n2c3ccccc3c3ccccc32)cc(C(=O)O)c1 [Compound H-761] | − | 70% |
| COC(=O)c1cc(NC(=O)c2ccc(OC(C)=O)cc2)cc(NC(=O)n2c3ccccc3c3ccccc32)c1 [Compound H-696] | ++ (Hydrolysis causes conversion to H-697) |  |
| O=C(CN(c1ccccc1)c1ccccc1)Nc1cc(NC(=O)c2ccc3c(c2)OCCO3)cc(C(=O)O)c1 [Compound H-823] |  | 4.2% |
| O=C(Cn1c2ccccc2c2ccccc21)Nc1cc(NC(=O)c2ccc3c(c2)OCCO3)cc(C(=O)O)c1 [Compound H-749] |  | 53% |
| O=C(O)c1cc(NC(=O)c2ccc3c(c2)OCO3)cc(NC(=O)n2c3ccccc3c3ccccc32)c1 [Compound H-695] | +++ |  |
| O=C(COc1ccccc1)Nc1cc(NC(=O)n2c3ccccc3c3ccccc32)cc(C(=O)O)c1 [Compound H-759] | − | 11% |
| O=C(O)c1cc(NC(=O)c2ccccc2)cc(NC(=O)n2c3ccccc3c3ccccc32)c1 [Compound H-681] | ++ |  |
| COC(=O)c1cc(NC(=O)Cn2c3ccccc3c3ccccc32)cc(NC(=O)c2ccc3ccccc3c2)c1 [Compound H-744] | + (Hydrolysis causes conversion to H-745) |  |
| O=C(O)c1cc(NC(=O)c2ccc3ccccc3n2)cc(NC(=O)N(c2ccccc2)c2ccccc2)c1 [Compound H-733] | − | 61% |
| O=C(O)c1cc(NC(=O)c2ccc3c(c2)OCCO3)cc(NC(=O)n2c3ccccc3c3ccccc32)c1 [Compound H-692] | +++ | 80 to 94% |
| CC(=O)Nc1ccc(C(=O)Nc2cc(NC(=O)n3c4ccccc4c4ccccc43)cc(C(=O)O)c2)cc1 [Compound H-694] | ++ | 69% |

| SMILES | Pin1 inhibition activity Cell-based assay (Pin1 [1]) | inhibition at 10 µM (Pin1 [2]) |
| --- | --- | --- |
| COC(=O)c1cc(NC(=O)c2ccc3ccccc3n2)cc(NC(=O)N(c2ccccc2)c2ccccc2)c1 [Compound H-729] | ++ (Hydrolysis causes conversion to H-733) |  |
| O=C(Cn1c2ccccc2c2ccccc21)Nc1cc(NC(=O)c2ccc3ccccc3c2)cc(C(=O)O)c1 [Compound H-745] | − | 88 to 95% |
| COC(=O)c1cc(NC(=O)CNC(=O)OCc2ccccc2)cc(NC(=O)n2c3ccccc3c3ccccc32)c1 [Compound H-768] | − (Hydrolysis causes conversion to H-769) |  |
| COC(=O)c1cc(NC(=O)Cn2c3ccccc3c3ccccc32)cc(NC(=O)c2ccc3c(c2)OCCO3)c1 [Compound H-748] | ++ (Hydrolysis causes conversion to H-749) |  |
| O=C(O)c1cc(NC(=O)c2cnccn2)cc(NC(=O)n2c3ccccc3c3ccccc32)c1 [Compound H-700] | ++ |  |
| COC(=O)c1cc(NC(=O)c2ccc3c(c2)OCCO3)cc(NC(=O)N(c2ccccc2)c2ccccc2)c1 [Compound H-730] | ++ (Hydrolysis causes conversion to H-734) |  |
| O=C(CNC(=O)c1ccccc1)Nc1cc(NC(=O)n2c3ccccc3c3ccccc32)cc(C(=O)O)c1 [Compound H-767] | − | 74.8% |
| O=C(O)c1cc(NC(=O)c2ccc3ccccc3c2)cc(NC(=O)n2c3ccccc3c3ccccc32)c1 [Compound H-594] | +++ |  |
| COC(=O)c1cc(NC(=O)COc2ccc3ccccc3c2)cc(NC(=O)n2c3ccccc3c3ccccc32)c1 [Compound H-760] | + (Hydrolysis causes conversion to H-761) |  |
| COC(=O)c1cc(NC(=O)COc2ccccc2)cc(NC(=O)n2c3ccccc3c3ccccc32)c1 [Compound H-758] | − (Hydrolysis causes conversion to H-759) |  |
| O=C(O)c1cc(NC(=O)c2ccc(O)cc2)cc(NC(=O)n2c3ccccc3c3ccccc32)c1 [Compound H-697] | + |  |
| COC(=O)c1cc(NC(=O)CNC(=O)c2ccccc2)cc(NC(=O)n2c3ccccc3c3ccccc32)c1 [Compound H-766] | + (Hydrolysis causes conversion to H-767) |  |
| COC(=O)c1cc(NC(=O)c2ccccc2)cc(NC(=O)n2c3ccccc3c3ccccc32)c1 [Compound H-679] | ++ (Hydrolysis causes conversion to H-681) |  |
| O=C(CN(c1ccccc1)c1ccccc1)Nc1cc(NC(=O)c2ccccc2)cc(C(=O)O)c1 [Compound H-825] |  | 19.9% |
| COC(=O)c1cc(NC(=O)c2ccc(NC(C)=O)cc2)cc(NC(=O)n2c3ccccc3c3ccccc32)c1 [Compound H-687] | − (Hydrolysis causes conversion to H-694) |  |
| COC(=O)c1cc(NC(=O)Cn2c3ccccc3c3ccccc32)cc(NC(=O)c2ccc3ccccc3n2)c1 [Compound H-746] | − (Hydrolysis causes conversion to H-747) |  |
| COC(=O)c1cc(NC(=O)c2ccc3ccccc3c2)cc(NC(=O)n2c3ccccc3c3ccccc32)c1 [Compound H-591] | +++ (Hydrolysis causes conversion to H-594) |  |
| COC(=O)c1cc(NC(=O)c2cnc3ccccc3n2)cc(NC(=O)N(c2ccccc2)c2ccccc2)c1 [Compound H-731] | +++ (Hydrolysis causes conversion to H-735) |  |
| COC(=O)c1cc(NC(=O)c2ccc3ccccc3c2)cc(NC(=O)N(c2ccccc2)c2ccccc2)c1 [Compound H-728] | + (Hydrolysis causes conversion to H-732) |  |
| COC(=O)c1cc(NC(=O)Nc2cccc3ccccc23)cc(NC(=O)c2ccc3ccccc3c2)c1 [Compound H-609] | ++ to +++ (Hydrolysis causes conversion to H-613) |  |
